Results as given in PMC7933320, “Cytochalasins from Xylaria sp. CFL5, an Endophytic Fungus of Cephalotaxus fortunei” (Natural Products and Bioprospecting, 2020).
pIC50: −log10 of the molar value.

Experiments:
[1] = molecular target: T1, LAG3/FGL1 (Homo sapiens, UniProt P18627); test: LAG3/FGL1 binding assay (HTRF, Cisbio kit); settings: for inhibition at 50 µM: read-out: inhibition rate against LAG3/FGL1
T1 sequence (P18627 23-450 limits assumed): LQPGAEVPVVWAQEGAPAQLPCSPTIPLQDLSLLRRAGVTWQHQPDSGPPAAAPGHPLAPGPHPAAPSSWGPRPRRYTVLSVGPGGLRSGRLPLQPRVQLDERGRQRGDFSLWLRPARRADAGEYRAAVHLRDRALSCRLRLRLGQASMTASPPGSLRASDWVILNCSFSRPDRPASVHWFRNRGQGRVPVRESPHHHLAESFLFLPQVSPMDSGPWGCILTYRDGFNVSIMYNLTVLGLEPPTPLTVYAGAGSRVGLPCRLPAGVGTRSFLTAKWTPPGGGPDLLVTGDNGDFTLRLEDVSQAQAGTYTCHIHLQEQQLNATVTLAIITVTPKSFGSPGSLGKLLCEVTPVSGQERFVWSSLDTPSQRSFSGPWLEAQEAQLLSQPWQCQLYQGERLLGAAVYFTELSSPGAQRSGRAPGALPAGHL
Procedure: (§1) Using the following fluorescence intensity (F) measurements at 665 nm, such as the signals of positive control (Fp), blank control (Fb), and experimental groups (Fe), the inhibition rate was calculated at each of the compound concentration levels. The inhibitory activity of compound against the interaction of LAG3 with MHC II was evaluated based on the formula as follow: Inhibition rate = (Fp − Fe)/(Fp − Fb) × 100%. IC50 values were calculated by linear regression of a dose-dependent inhibition rate curve.
The tested principles and methods were similar to those of LAG3/MHC II. Using LAG3/FGL1 binding assay kit from Cisbio, the inhibition activity of tested compounds on the binding between LAG3 and MHC II was evaluated. […] Moreover, the compositions of tested groups, positive control, negative control, blank control were analogical with those of LAG3/MHC II kit. The experimental operations and statistical analysis were also identical with above-mentioned LAG3/MHC II kit.

[2] = molecular target: T2, LAG3/MHC II (Homo sapiens, UniProt P18627); test: LAG3/MHC II binding assay (HTRF, Cisbio kit); settings: for inhibition at 50 µM: read-out: inhibition rate against LAG3/MHC II
T2 sequence (P18627 23-450 limits assumed): T1 sequence (P18627 23-450 limits assumed)
Procedure: Utilizing HTRF (Homogeneous Time-resolved Fluorescence) technology [34, 35], the inhibition activity of tested compounds interfering in the interaction between MHC II and LAG3 proteins was evaluated. The activity was measured using LAG3/MHC II binding assay kit commercially available from Cisbio. […] 2 μL tested solutions, 4 μL Tag1-LAG3 protein, and 4 μL Tag2-MHC II protein were added in sterile 96-well dishes. After incubation for 15 min in room temperature, 5 μL anti-Tag1-Tb^3+ and 5 μL anti-Tag2-XL665 (or 10 μL of pre-mixed anti-tag detection reagents) were added into each well. The concentration of DMSO in each well was kept below 0.5% and the final volume in each well was 20 μL in the moment. Then the 96-well dishes were kept incubating for 1 h to overnight at room temperature. Subsequently, remove the plate sealer and read specific emission signal at 665 nm on an HTRF compatible reader. […] The negative control consisted of 4 μL Tag2-MHC II protein, 5 μL anti-Tag1-Tb^3+ and 5 μL anti-Tag2-XL665, as well as 6 μL diluent. In blank control, 5 μL anti-Tag1-Tb^3+, 10 μL diluent, and 5 μL detection buffer were existed.
as §1

[3] = Cytotoxicity by the CCK8 assay; type: cell-based; settings: human, AGS cells, read-out: inhibition rate, cytotoxicity against AGS cells
Procedure: With adriamycin as the positive control, compounds 1, 4–9 were assessed for cytotoxicity against AGS, U251, and MDA-MB-231 by the CCK8 assay (Tables 3 and 4).

## CC(=O)OC1C=CC(C)(O)C(=O)C(C)CC=CC2C=C(C)C(C)C3C(Cc4ccccc4)NC(=O)C213 (stereo not shown) [Compound 4, zygosporin G]
[1]
  inhibition at 50 µM: 24.9%
[2]
  inhibition at 50 µM: 55.7%

## CC(=O)OC1C=CC(C)(O)C(=O)C(C)CC=CC2C=C(CO)C(C)C3C(Cc4ccccc4)NC(=O)C213 (stereo not shown) [Compound 5, 12-hydroxyl zygosporin G]
[1]
  inhibition at 50 µM: 79.1%
[2]
  pIC50: 5.50
  inhibition at 50 µM: 85.3%

## CC(=O)OC1C=CC(C)C(=O)C(C)CC=CC2C=C(C)C(C)C3C(Cc4ccccc4)NC(=O)C213 (stereo not shown) [Compound 1, xylariasin A]
[1]
  pIC50: 4.93
  inhibition at 50 µM: 83.9%
[2]
  pIC50: 5.32
  inhibition at 50 µM: 82.4%

## CC(=O)OC1C=CC(C)(O)C(=O)C(C)CC=CC2C(O)C(C)=C(C)C3C(Cc4ccccc4)NC(=O)C123 (stereo not shown) [Compound 9, cytochalasin C]
[1]
  inhibition at 50 µM: 58.4%
[2]
  inhibition at 50 µM: 77.4%
[3]
  inhibition at 5 µM: 64%

## C=C1[C@@H](C)[C@H]2[C@H](Cc3ccccc3)NC(=O)[C@]23[C@H](OC(C)=O)/C=C/[C@@](C)(O)C(=O)[C@@H](C)C/C=C/[C@H]3[C@@H]1O [Compound 6, cytochalasin D]
[1]
  inhibition at 50 µM: 2.66%
[3]
  inhibition at 5 µM: 94%

## C=C1C(C)C2C(Cc3ccccc3)NC(=O)C23C(OC(C)=O)C=CC(C)C(=O)C(C)CC=CC3C1O (stereo not shown) [Compound 7, zygosporin E]
[1]
  pIC50: 5.36
  inhibition at 50 µM: 92.7%
[2]
  pIC50: 5.63
  inhibition at 50 µM: 82.7%

## CC(=O)OC1C=CC(C)(O)C(=O)C(C)CC=CC2C(=O)C(C)C(C)C3C(Cc4ccccc4)NC(=O)C123 (stereo not shown) [Compound 8]
[1]
  pIC50: 5.13
  inhibition at 50 µM: 92.5%
[2]
  pIC50: 5.59
  inhibition at 50 µM: 78.9%
